Assay results reported in ChEMBL document CHEMBL4477224, “Antidiabetic effect, antioxidant activity, and toxicity of 3',4'-Di-O-acetyl-cis-khellactone in Streptozotocin-induced diabetic rats” (Bioorg Med Chem Lett, 2016).
Active and inactive are the calls of the source. The rule behind the calls is not given here.

Experiments:
[1] = Mutagenicity in Salmonella typhimurium TA98 assessed as mutagenic index at 0.19 uM/plate after 48 hrs in absence of S9 fraction by Ames test relative to control; type: toxicity; settings: salmonella enterica subsp. enterica serovar typhimurium, s9, 48 h
[2] = Mutagenicity in Salmonella typhimurium TA102 assessed as mutagenic index at 0.005 uM/plate after 48 hrs in presence of S9 fraction by Ames test relative to control; type: toxicity, subcellular; settings: salmonella enterica subsp. enterica serovar typhimurium, s9, 48 h
[3] = Mutagenicity in Salmonella typhimurium TA100 assessed as mutagenic index at 0.005 uM/plate after 48 hrs in presence of S9 fraction by Ames test relative to control; type: toxicity, subcellular; settings: salmonella enterica subsp. enterica serovar typhimurium, s9, 48 h
[4] = Mutagenicity in Salmonella typhimurium TA98 assessed as mutagenic index at 0.005 uM/plate after 48 hrs in presence of S9 fraction by Ames test relative to control; type: toxicity, subcellular; settings: salmonella enterica subsp. enterica serovar typhimurium, s9, 48 h
[5] = tested on: Rattus norvegicus; experiment: Antidiabetic activity in STZ-induced diabetic albino Wistar rat assessed as increase in body weight at 100 mg/kg, po administered for 45 days relative to control; type: functional
[6] = tested on: Rattus norvegicus; experiment: Antioxidant activity in STZ-induced diabetic Wistar rat liver assessed as SOD level measured per mg of protein at 2.5 mg/kg, po administered for 15 days by NBT reduction test (reference value: 0.22 +/- 0.06 microM/min); type: functional
[7] = tested on: Rattus norvegicus; experiment: Antidiabetic activity in STZ-induced diabetic Wistar rat blood assessed as HDL level at 2.5 mg/kg, po administered for 15 days (reference value: 36.31 +/- 0.51 mg/dl); type: functional
[8] = tested on: Rattus norvegicus; experiment: Antidiabetic activity in STZ-induced diabetic Wistar rat assessed as effect on hepatocytes surrounding central vein architecture at 2.5 mg/kg, po administered for 15 days by hematoxylin/eosin staining based microscopy; type: functional, organism-based
[9] = tested on: Rattus norvegicus; experiment: Antidiabetic activity in STZ-induced diabetic Wistar rat blood assessed as creatinine level at 2.5 mg/kg, po administered for 15 days (reference value: 0.56 +/- 0.03 mg/dl); type: functional
[10] = tested on: Rattus norvegicus; experiment: Antidiabetic activity in STZ-induced diabetic Wistar rat assessed as increase in body weight at 2.5 mg/kg, po administered for 15 days post STZ challenge measured on day 21; type: functional
[11] = tested on: Rattus norvegicus; experiment: Antidiabetic activity in STZ-induced diabetic Wistar rat assessed as change in fasting blood glucose level at 2.5 mg/kg, po administered for 15 days post STZ challenge measured on day 21 by glucometry (reference value: 63.75 +/- 7.3 mg/dl); type: functional
[12] = tested on: Rattus norvegicus; experiment: Antidiabetic activity in STZ-induced diabetic Wistar rat blood assessed as urea level at 2.5 mg/kg, po administered for 15 days (reference value: 62.98 +/- 6.21 mg/dl); type: functional
[13] = tested on: Rattus norvegicus; experiment: Antidiabetic activity in STZ-induced diabetic Wistar rat blood assessed as LDL level at 2.5 mg/kg, po administered for 15 days (reference value: 23.11 +/- 9.82 mg/dl); type: functional
[14] = tested on: Rattus norvegicus; experiment: Antidiabetic activity in STZ-induced diabetic Wistar rat liver assessed as effect on central vein architecture at 2.5 mg/kg, po administered for 15 days by hematoxylin/eosin staining based microscopy; type: functional, organism-based
[15] = tested on: Rattus norvegicus; experiment: Antidiabetic activity in STZ-induced diabetic Wistar rat assessed as change in fasting blood glucose level at 2.5 mg/kg, po administered for 7 days post STZ challenge measured on day 14 by glucometry (reference value: 63.75 +/- 7.3 mg/dl); type: functional
[16] = tested on: Rattus norvegicus; experiment: Antidiabetic activity in STZ-induced diabetic Wistar rat assessed as decrease in blood glucose level at 2.5 mg/kg, po administered for 15 days post STZ challenge measured on day 21 by glucometry relative to control; type: functional; parameters: scale not given: the % may be the effect or the level left
[17] = tested on: Rattus norvegicus; experiment: Antidiabetic activity in STZ-induced diabetic Wistar rat blood assessed as cholesterol level at 2.5 mg/kg, po administered for 15 days (reference value: 80.09 +/- 9.35 mg/dl); type: functional
[18] = tested on: Rattus norvegicus; experiment: Antioxidant activity in STZ-induced diabetic Wistar rat liver assessed as catalase level measured as H2O2 consumption per mg of protein at 2.5 mg/kg, po administered for 15 days (reference value: 68.9 +/- 11.1 microM/min); type: functional
[19] = tested on: Rattus norvegicus; experiment: Antidiabetic activity in STZ-induced diabetic Wistar rat assessed as change in fasting blood glucose level at 2.5 mg/kg, po administered on day 7 post STZ challenge measured immediately post dosage by glucometry (reference value: 63.75 +/- 7.3 mg/dl); type: functional
[20] = tested on: Rattus norvegicus; experiment: Antioxidant activity in STZ-induced diabetic Wistar rat liver assessed as glutathione peroxidase level measured as NADPH consumption per mg of protein at 2.5 mg/kg, po administered for 15 days (reference value: 10 +/- 0.6 microM/min); type: functional
[21] = tested on: Rattus norvegicus; experiment: Antidiabetic activity in STZ-induced diabetic Wistar rat assessed as increase in fasting blood glucose level at 2.5 mg/kg, po administered for 15 days post STZ challenge measured on day 21 by glucometry; type: functional
[22] = tested on: Rattus norvegicus; experiment: Antidiabetic activity in STZ-induced diabetic Wistar rat assessed as body weight at 2.5 mg/kg, po administered on day 7 post STZ challenge measured immediately post dosage (reference value: 330.7 +/- 9.2 g); type: functional
[23] = tested on: Rattus norvegicus; experiment: Antidiabetic activity in STZ-induced diabetic Wistar rat assessed as body weight at 2.5 mg/kg, po administered for 15 days post STZ challenge measured on day 21 (reference value: 330.7 +/- 9.2 g); type: functional
[24] = Toxicity in DBA/2J mouse assessed as mortality; settings: in vivo

CC1=NN(c2ccc([N+](=O)[O-])cc2)C(=O)C1[N+](=O)[O-] (centres undefined) showed a Ratio [1] of 27.3.

Nc1ccc2cc3ccccc3cc2c1 [2-AMINOANTHRACENE] showed a Ratio [2] of 3.5, a Ratio [3] of 19.1 and a Ratio [4] of 54.1.

For C[C@@H]1O[C@@H](OC[C@H]2O[C@@H](Oc3c(-c4ccc(O)c(O)c4)oc4cc(O)cc(O)c4c3=O)[C@H](O)[C@@H](O)[C@@H]2O)[C@H](O)[C@H](O)[C@H]1O [RUTIN], the Activity [5] was 12.1%.

With COc1ccc(Cl)cc1C(=O)NCCc1ccc(S(=O)(=O)NC(=O)NC2CCCCC2)cc1 [GLYBURIDE] the Activity [6] was 0.55 U/min, the Activity [7] was 26.6 mg/dL and the Activity [8] was “Active”. For the same molecule, the Activity [9] was 0.62 mg/dL, the Activity [10] was 54.8 g and the Activity [11] was 142 mg/dL. The Activity [12] was 58.43 mg/dL, the Activity [13] was 21.71 mg/dL and the Activity [14] was “Active”. The Activity [15] was 282.8 mg/dL, the Activity [16] was 56.6% and the Activity [17] was 70.64 mg/dL. The Activity [18] was 93.2 µM/min, the Activity [19] was 211.7 mg/dL and the Activity [20] was 48.75 µM/min. The Activity [21] was 78.25 mg/dL, the Activity [22] was 341.4 g and the Activity [23] was 385.5 g.

In the case of O=c1ccc2ccccc2o1 [COUMARIN], the LD50 [24] is reported as > 700 mg/kg.
